Assay results: paper PMC10045483, “Comparative Pharmacokinetic Study of 5 Active Ingredients after Oral Administration of Zuogui Pill in Osteoporotic Rats with Different Syndrome Types” (International Journal of Analytical Chemistry, 2023)
Where two headings read alike, the source gives them in different places.

Assays:
[1] = Pharmacokinetic study of 5 compounds in rat plasma after oral administration of Zuogui Pill extract (HPLC-MS/MS, noncompartmental analysis); format: in vivo, Female Sprague-Dawley rats; settings: oral Zuogui Pill extract 1.5 mL/100 g; for Cmax / CL/F / MRT last / MRT inf / Tmax / half-life: female, Sprague-Dawley, rat, po, 1.5 mL/100 g; for Cmax / Tmax / half-life / AUC0–t / AUC0–∞ / t 1/2: n = 6; for CL/F: n = 6, read-out: CL_F_obs (converted); for MRT last: n = 6, read-out: MRT0–t; for MRT inf: n = 6, read-out: MRT0–∞
Description: Female Sprague-Dawley rats (180–220 g) were purchased from Shanghai Laboratory Animal Centre (Shanghai, China). The rats were maintained in a standard environment (22 ± 1°C, 60 ± 10% relative humidity, and a 12 h light/dark cycle) for one week to acclimate and fed water and food ad libitum. Twenty-four rats were divided randomly into […] and treated through ovary enucleation to establish the model of osteoporosis. Ten weeks after operation, osteoporosis models of kidney-yang-deficiency and kidney-yin-deficiency were established by intramuscular injection of hydrocortisone (25 mg/kg) and intragastric administration of thyroxine suspension (160 mg/kg) for 10 days, respectively. The femur of two rats from each group was then stained with hematoxylin and eosin (H&E) to assess histopathological change. Also, the validation of osteoporosis kidney-yang-deficiency and kidney-yin-deficiency models was judged by detecting the level of cyclic adenosine monophosphate (cAMP) and cyclic guanosine monophosphate (cGMP) in rat plasma. Laboratory Animal Management and Ethics Committee of Zhejiang Chinese Medical University approved all animal treatments (ZSLL-2014-48).
One hundred microliters of plasma was mixed with 100 μL of the IS solution, followed by 700 μL of methanol:acetonitrile (1 : 1). After 2 min of vortex mixing, the mixture was spun for 15 min at 8000 rpm and 4°C. The supernatants were collected and dried in a high-purity N2 environment. The residues were redissolved in 100 μL methanol and centrifuged for 15 min at 13000 rpm and 4°C. Finally, an aliquot of 10 μL supernatants was used to conduct the analysis.
Four groups of rats were orally administered with Zuogui Pill extract at a dose of 1.5 mL/100 g. Then, 0.3 mL blood samples were collected from orbital veins at 0, 0.08, 0.17, 0.25, 0.5, 1, 2, 4, 6, 8, 12, and 24 h after administration, placed in an anticoagulant tube, and centrifuged for 15 min at 5000 rpm and 4°C. The plasma was prepared and stored at −20°C until analysis.
Phoenix WinNonlin 6.4 software was used to estimate pharmacokinetic parameters using noncompartmental analysis. Furthermore, SPSS 26 software was used to compute comparisons of the pharmacokinetic data among the four groups according to a one-way ANOVA. The results are presented as mean ± SD.

[2] = Stability of analytes in rat plasma (QC samples) under storage conditions; settings: n = 5; for Stability, Room temperature for 4 h, Mean: 25°C; for Stability, Three freeze-thaw cycles, Mean: −20°C to 25°C
Description: QC samples at three levels using five replicates were used to evaluate the stability under the following conditions: 4 h at room temperature (25°C), 24 h in autosampler (4°C), and three freeze-thaw cycles (−20°C to 25°C).

[3] = osteoporosis rats (ovariectomized)
[4] = osteoporotic rats with kidney-yang-deficiency
[5] = osteoporotic rats with kidney-yin-deficiency
[6] = high QC (800, 16000, 3200, 400, 40 ng/mL in the same order)
[7] = middle QC (40, 800, 160, 20, 2 ng/mL in the same order)
[8] = low QC (2, 40, 8, 1, 0.1 ng/mL for chlorogenic acid, loganin, morroniside, aucubin, protocatechuic aldehyde)

Question: Which Cmax ([1]; normal rats) does the source give for `O=C(/C=C/c1ccc(O)c(O)c1)O[C@@H]1C[C@](O)(C(=O)O)C[C@@H](O)[C@H]1O` [Chlorogenic acid, chlorogenic acid] here?
Answer: 346 ± 64 ng/mL

Question: What about the CL/F ([1]; normal rats) of the same compound?
Answer: 15.2 mL/min/kg

Question: What about the MRT last ([1]; normal rats) of the same compound?
Answer: 5.46 ± 0.48 h

Question: What about the MRT inf ([1]; normal rats) of the same compound?
Answer: 8.17 ± 1.46 h

Question: And the Cmax [1, 3]?
Answer: 279 ± 56.3 ng/mL

Question: And the Tmax [1, 3]?
Answer: 0.26 ± 0.02 h

Question: What about the half-life [1, 3] of the same compound?
Answer: 6.38 ± 1.96 h

Question: And the CL/F [1, 3]?
Answer: 17.3 mL/min/kg

Question: What about the MRT last [1, 3] of the same compound?
Answer: 6.78 ± 0.68 h

Question: What about the MRT inf [1, 3] of the same compound?
Answer: 9.72 ± 2.61 h

Question: And the Cmax [1, 4]?
Answer: 430 ± 98.5 ng/mL

Question: And the CL/F [1, 4]?
Answer: 29.5 mL/min/kg

Question: And the MRT last [1, 4]?
Answer: 4.52 ± 1.46 h

Question: What about the MRT inf [1, 4] of the same compound?
Answer: 6.56 ± 2.64 h

Question: And the Cmax [1, 5]?
Answer: 354 ± 83.8 ng/mL

Question: And the half-life [1, 5]?
Answer: 6.61 ± 3.84 h

Question: And the CL/F [1, 5]?
Answer: 37.1 mL/min/kg

Question: What about the MRT last [1, 5] of the same compound?
Answer: 3.03 ± 0.38 h

Question: And the MRT inf [1, 5]?
Answer: 4.1 ± 1.02 h

Question: What about the “AUC0–t” value ([1]; normal rats) of the same compound?
Answer: 497.98 ± 34.72^∗ h∗ng/mL

Question: And the “AUC0–∞” value ([1]; normal rats)?
Answer: 546.26 ± 38.80 h∗ng/mL

Question: What about the “t 1/2” value ([1]; normal rats) of the same compound?
Answer: 8.17 ± 1.79 h

Question: And the “AUC0–t” value [1, 3]?
Answer: 435.76 ± 59.78 h∗ng/mL

Question: And the “AUC0–∞” value [1, 3]?
Answer: 489.67 ± 77.69 h∗ng/mL

Question: What about the “AUC0–t” value [1, 4] of the same compound?
Answer: 263.13 ± 40.25^∗∗ h∗ng/mL

Question: What about the “AUC0–∞” value [1, 4] of the same compound?
Answer: 284.31 ± 33.34^∗∗ h∗ng/mL

Question: What about the “t 1/2” value [1, 4] of the same compound?
Answer: 5.41 ± 1.84 h

Question: And the “AUC0–t” value [1, 5]?
Answer: 218.55 ± 23.29^∗∗ h∗ng/mL

Question: What about the “AUC0–∞” value [1, 5] of the same compound?
Answer: 225.89 ± 25.03^∗∗ h∗ng/mL

Question: What about the “Stability, Room temperature for 4 h, Mean” value (“Stability, Room temperature” for short) [2, 6] of the same compound?
Answer: 85.7%

Question: What about the “Stability, Room temperature” value [2, 7] of the same compound?
Answer: 85.9%

Question: What about the “Stability, Autosampler at 4°C for 24 h, Mean” value (from here on “Stability, Autosampler at 4°C”) [2, 6] of the same compound?
Answer: 87.3%

Question: And the “Stability, Autosampler at 4°C” value [2, 7]?
Answer: 93.7%

Question: And the “Stability, Three freeze-thaw cycles, Mean” value [2, 6]?
Answer: 80.9%

Question: And the “Stability, Three freeze-thaw cycles, Mean” value [2, 7]?
Answer: 89.3%

Question: With `COC(=O)C1=CO[C@@H](O[C@@H]2O[C@H](CO)[C@@H](O)[C@H](O)[C@H]2O)[C@@H]2[C@H](C)O[C@@H](O)C[C@H]12` [Morroniside, morroniside] as the compound, how does the Cmax ([1]; normal rats) read?
Answer: 1720 ± 410 ng/mL

Question: And the Tmax ([1]; normal rats)?
Answer: 0.29 ± 0.1 h

Question: What about the half-life ([1]; normal rats) of the same compound?
Answer: 3.66 ± 1.18 h

Question: And the CL/F ([1]; normal rats)?
Answer: 49.4 mL/min/kg

Question: What about the MRT last ([1]; normal rats) of the same compound?
Answer: 3.41 ± 0.33 h

Question: And the MRT inf ([1]; normal rats)?
Answer: 3.66 ± 0.48 h

Question: What about the Cmax [1, 3] of the same compound?
Answer: 1110 ± 163 ng/mL

Question: What about the Tmax [1, 3] of the same compound?
Answer: 0.26 ± 0.02 h

Question: What about the half-life [1, 3] of the same compound?
Answer: 2.4 ± 0.51 h

Question: And the CL/F [1, 3]?
Answer: 59.2 mL/min/kg

Question: And the MRT last [1, 3]?
Answer: 4.37 ± 0.43 h

Question: What about the MRT inf [1, 3] of the same compound?
Answer: 4.51 ± 0.38 h

Question: What about the Cmax [1, 4] of the same compound?
Answer: 1450 ± 337 ng/mL

Question: And the Tmax [1, 4]?
Answer: 0.19 ± 0.04 h

Question: And the half-life [1, 4]?
Answer: 3.83 ± 0.64 h

Question: What about the CL/F [1, 4] of the same compound?
Answer: 59.4 mL/min/kg

Question: And the MRT last [1, 4]?
Answer: 4.68 ± 0.24 h

Question: And the MRT inf [1, 4]?
Answer: 5.03 ± 0.33 h

Question: And the Cmax [1, 5]?
Answer: 1750 ± 321 ng/mL

Question: And the Tmax [1, 5]?
Answer: 0.24 ± 0.03 h

Question: And the half-life [1, 5]?
Answer: 2.9 ± 0.65 h

Question: What about the CL/F [1, 5] of the same compound?
Answer: 28.3 mL/min/kg

Question: What about the MRT last [1, 5] of the same compound?
Answer: 5.08 ± 0.74 h

Question: What about the MRT inf [1, 5] of the same compound?
Answer: 5.21 ± 0.78 h

Question: What about the “AUC0–t” value ([1]; normal rats) of the same compound?
Answer: 2151.00 ± 498.88 h∗ng/mL

Question: And the “AUC0–∞” value ([1]; normal rats)?
Answer: 2171.33 ± 509.45 h∗ng/mL

Question: What about the “AUC0–t” value [1, 3] of the same compound?
Answer: 1724.77 ± 149.05 h∗ng/mL

Question: And the “AUC0–∞” value [1, 3]?
Answer: 1741.55 ± 136.08 h∗ng/mL

Question: And the “AUC0–t” value [1, 4]?
Answer: 1726.42 ± 217.11 h∗ng/mL

Question: And the “AUC0–∞” value [1, 4]?
Answer: 1750.35 ± 215.20 h∗ng/mL

Question: And the “AUC0–t” value [1, 5]?
Answer: 3764.53 ± 842.38^∗∗ h∗ng/mL

Question: What about the “AUC0–∞” value [1, 5] of the same compound?
Answer: 3782.41 ± 832.52^∗∗ h∗ng/mL

Question: What about the “Stability, Room temperature” value [2, 6] of the same compound?
Answer: 98.3%

Question: What about the “Stability, Room temperature” value [2, 8] of the same compound?
Answer: 90.8%

Question: What about the “Stability, Room temperature” value [2, 7] of the same compound?
Answer: 86.1%

Question: What about the “Stability, Autosampler at 4°C” value [2, 6] of the same compound?
Answer: 95.0%

Question: What about the “Stability, Autosampler at 4°C” value [2, 8] of the same compound?
Answer: 89.6%

Question: And the “Stability, Autosampler at 4°C” value [2, 7]?
Answer: 87.6%

Question: And the “Stability, Three freeze-thaw cycles, Mean” value [2, 6]?
Answer: 89.8%

Question: What about the “Stability, Three freeze-thaw cycles, Mean” value [2, 8] of the same compound?
Answer: 93.0%

Question: And the “Stability, Three freeze-thaw cycles, Mean” value [2, 7]?
Answer: 91.5%
